Reference: ChEMBL document CHEMBL1201862, “PubChem BioAssay data set” (2004)
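Each compound was tested at five concentrations against cells in 96-well plates for 48 hours. Abbreviation: GI50, concentration required for 50% inhibition of growth.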 The source made the active and inactive calls. Rule as the data show it: active = GI50 up to about 1.1 µM and inactive = higher.

What was measured:
Test in all cases: DTP human tumour cell line panel, 48 h
[1] = system: DU-145
[2] = system: HT-29
[3] = system: NCI-H226
[4] = system: HCT-116
[5] = system: RXF 393
[6] = system: OVCAR-5
[7] = system: SW-620
[8] = system: HL-60
[9] = system: HCT-15
[10] = system: A549
[11] = system: SR
[12] = system: SNB-19
[13] = system: IGROV-1
[14] = system: SK-MEL-2
[15] = system: PC-3
[16] = system: ACHN
[17] = system: 786-0
[18] = system: OVCAR-8
[19] = system: SNB-75

Compound	GI50 [1]	GI50 [2]	GI50 [3]	GI50 [4]	GI50 [5]	GI50 [6]	GI50 [7]	GI50 [8]	GI50 [9]	GI50 [10]	GI50 [11]	GI50 [12]	GI50 [13]	GI50 [14]	GI50 [15]	GI50 [16]	GI50 [17]	GI50 [18]	GI50 [19]
O=C(COC(c1ccc(F)cc1)c1ccc(F)cc1)N1CCN(CCCc2ccccc2)CC1	4.44 µM (inactive)	3.17 µM (inactive)	3.01 µM (inactive)	2.88 µM (inactive)	3.22 µM (inactive)	4.15 µM (inactive)	5.15 µM (inactive)	3.31 µM (inactive)	3.75 µM	3.93 µM (inactive)	3.54 µM (inactive)	4.22 µM (inactive)	5.37 µM (inactive)	3.87 µM (inactive)	3.37 µM (inactive)	3.52 µM (inactive)	3.94 µM (inactive)	3.54 µM (inactive)	
CSc1nc(C)c2c(n1)N(c1ccc(Cl)cc1)CC2	> 100 µM (inactive)	> 100 µM (inactive)	> 100 µM (inactive)	> 100 µM (inactive)	> 100 µM (inactive)	> 100 µM (inactive)	> 100 µM (inactive)		> 100 µM	> 100 µM (inactive)	> 100 µM (inactive)	> 100 µM (inactive)	> 100 µM (inactive)	> 100 µM (inactive)	> 100 µM (inactive)	> 100 µM (inactive)	77.1 µM (inactive)	> 100 µM (inactive)	0.0946 µM (active)
COc1ccc(-c2cc(-c3ccc(Cl)cc3)n(C3OC(CO)C(O)C(O)C3O)c(=S)c2C#N)cc1 (centres undefined)	4.04 µM (inactive)	24.2 µM (inactive)		34.2 µM (inactive)		33 µM (inactive)	48.2 µM (inactive)		38.5 µM		42.9 µM (inactive)	> 100 µM (inactive)	26.5 µM (inactive)	26.9 µM (inactive)	> 100 µM (inactive)	> 100 µM (inactive)	12.5 µM (inactive)	21 µM (inactive)	89.7 µM (inactive)
CCN(CC)C(=S)SC(C(=O)Nc1nnc(-c2ccccc2)o1)c1ccccc1 (centres undefined)	17.9 µM (inactive)	17.9 µM (inactive)	24.7 µM (inactive)	16 µM (inactive)	16.2 µM (inactive)	23.1 µM (inactive)	28.7 µM (inactive)		5.24 µM	15.3 µM (inactive)	5.52 µM (inactive)	29.8 µM (inactive)	15.3 µM (inactive)	18.1 µM (inactive)	19.3 µM (inactive)	17.4 µM (inactive)	15.8 µM (inactive)	28.8 µM (inactive)	31.9 µM (inactive)
COC(=O)[C@]1(Cc2ccc3ccccc3c2)CCCCCCN1C(=O)c1ccccc1	> 43.6 µM (inactive)	> 28.2 µM (inactive)	> 37.9 µM (inactive)	> 25.4 µM (inactive)	> 32.2 µM (inactive)	> 38 µM (inactive)	> 40.8 µM (inactive)		> 31.8 µM	> 100 µM (inactive)	> 100 µM (inactive)	> 44.6 µM (inactive)	> 37.8 µM (inactive)	12.6 µM (inactive)	> 22.4 µM (inactive)	> 34.4 µM (inactive)	> 37 µM (inactive)	> 33.3 µM (inactive)	17.5 µM (inactive)
O=C1NC(=O)C2(CCC(O)C2)c2cc[n+]([O-])cc21 (centres undefined)	> 100 µM (inactive)	> 100 µM (inactive)	> 100 µM (inactive)	> 100 µM (inactive)	> 100 µM (inactive)	> 100 µM (inactive)	> 100 µM (inactive)		> 100 µM	> 100 µM (inactive)	> 100 µM (inactive)	> 100 µM (inactive)	> 100 µM (inactive)	> 100 µM (inactive)	> 100 µM (inactive)	> 100 µM (inactive)	> 100 µM (inactive)	> 100 µM (inactive)	60.1 µM (inactive)
CC(CC(N)C(=O)O)C(=O)O (centres undefined)	> 100 µM (inactive)	> 100 µM (inactive)	> 100 µM (inactive)	> 100 µM (inactive)	> 100 µM (inactive)	> 100 µM (inactive)	> 100 µM (inactive)	> 100 µM (inactive)	> 100 µM	> 100 µM (inactive)	> 100 µM (inactive)	> 100 µM (inactive)	> 100 µM (inactive)	> 100 µM (inactive)	> 100 µM (inactive)	> 100 µM (inactive)	> 100 µM (inactive)	> 100 µM (inactive)	
COc1cc(O)c(C(C)=O)c(O)c1	64.9 µM (inactive)	> 100 µM (inactive)		55 µM (inactive)	> 100 µM (inactive)	> 100 µM (inactive)	> 100 µM (inactive)		76.7 µM	> 100 µM (inactive)	36.3 µM (inactive)		77.3 µM (inactive)	78.9 µM (inactive)	60.7 µM (inactive)	42.7 µM (inactive)	> 100 µM (inactive)	55.2 µM (inactive)	50.8 µM (inactive)
